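Cultured in 96-well plates, cells were exposed to test compound for 48 hours across five concentrations. GI50 = concentration required for 50% inhibition of growth. Definition used: TGI = concentration required for complete inhibition of growth.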
Legend:
Assay in all cases: growth of human tumour cells (NCI), 48 h
[1] = test system: A498 renal
[2] = test system: CCRF-CEM leukemia
[3] = test system: HCT-116 colon
[4] = test system: HCT-15 colon
[5] = test system: KM12 colon
[6] = test system: MCF7 breast
[7] = test system: MDA-MB-231 breast
[8] = test system: SF-295 CNS
[9] = test system: SN12C renal
[10] = test system: UO-31 renal

Structure (SMILES)	TGI [1]	TGI [2]	TGI [3]	TGI [4]	TGI [5]	TGI [6]	TGI [7]	TGI [8]	TGI [9]	TGI [10]	GI50 [1]	GI50 [2]	GI50 [3]	GI50 [4]	GI50 [5]	GI50 [6]	GI50 [7]	GI50 [8]	GI50 [9]	GI50 [10]
CCC1(OC(=O)CN2CCN(CCO)CC2)C(=O)OCc2c1cc1n(c2=O)Cc2cc3ccccc3nc2-1 (stereo not drawn)	1.78 µM	0.451 µM	3.35 µM	26.2 µM	4.49 µM	2.18 µM	65.7 µM	15.6 µM	29.8 µM	0.851 µM										
COc1ccc(/C=C2\CN(C(=O)CCN3CCC(=NO)CC3)C/C(=C\c3ccc(OC)cc3)C2=O)cc1	3.2 µM	18.9 µM	3.23 µM	5.56 µM	3.71 µM	4.86 µM	4.55 µM	7.69 µM	5.92 µM	2.94 µM	1.6 µM	3.05 µM	1.74 µM	2.15 µM	1.74 µM	0.619 µM	2.11 µM	2.77 µM	2.27 µM	1.59 µM
COCCOCN(C(=O)C1=CCC2(CC1)OCCO2)c1ccccc1I	> 50 µM	> 50 µM	> 50 µM	> 50 µM	> 50 µM	> 50 µM	> 50 µM	> 50 µM	> 50 µM	> 50 µM										
CCOc1ccc2ccccc2c1NC1=NCCO1	93.8 µM	> 100 µM	> 100 µM	> 100 µM	76.7 µM	> 100 µM	> 100 µM	65.5 µM	> 100 µM	64.7 µM										
CCOC(=O)C1(Cc2ccccc2)Cc2cc3c(cc2C1)CCC3	> 100 µM	36.6 µM	> 100 µM	> 100 µM	> 100 µM	53 µM	> 100 µM	85.8 µM	> 100 µM	> 100 µM										
CC(CC(=O)CO[C@H]1[C@H](O)[C@@H](O)[C@@H](O)[C@@H]2NC(=O)c3c(cc4c(c3O)OCO4)[C@H]21)OC1OC(CO)C(O)C(O)C1O (stereo partly drawn)	4.39 µM	0.582 µM	1.67 µM	3.43 µM	1.77 µM	1.47 µM	1.89 µM	5.65 µM	2.14 µM	8.11 µM										
CCOC(=O)c1c(O)[nH]c(=O)c(CC)c1C	> 100 µM	> 100 µM	> 100 µM	> 100 µM	> 100 µM	> 100 µM	> 100 µM	> 100 µM	> 100 µM	> 100 µM										
CC(=O)OCCC1c2ccccc2-n2nc(-c3ccccc3)c(O)c21 (stereo not drawn)	36.4 µM	50 µM	30.4 µM	55.1 µM	38.5 µM	22.9 µM	43.3 µM	45 µM	31.1 µM	30.8 µM										
CN(C)CCOc1ccc(I)cc1Cc1ccccc1	27.1 µM	18.5 µM	22.4 µM	25.1 µM	27 µM	27.5 µM	12.3 µM	30.1 µM	25 µM	20.4 µM										
CC(NC1=CC(=O)c2ncccc2C1=O)C(O)c1ccccc1 (stereo not drawn)	27.7 µM	> 100 µM	15.2 µM	17.3 µM	24.8 µM	7.56 µM	6.94 µM	14.9 µM	24.9 µM	17.2 µM										
O=C(CCCN1CCC2(CC1)C(=O)NC(=O)N2c1ccccc1)c1ccc(F)cc1	> 100 µM	> 100 µM	> 100 µM	> 100 µM	> 100 µM	> 100 µM	> 100 µM	> 100 µM	> 100 µM	> 100 µM										
O=[N+]([O-])c1ccc(Cl)cc1-n1nc(-c2ccccc2)cc1-c1ccccc1	> 100 µM	> 100 µM	> 100 µM	> 100 µM	> 100 µM	> 100 µM	> 100 µM	> 100 µM	> 100 µM	> 100 µM										
CC(=O)OC1/C(=C/c2ccc([N+](=O)[O-])cc2)C[C@H]2[C@@H]3CC=C4C[C@@H](OC(C)=O)CC[C@]4(C)[C@H]3CC[C@]12C (stereo partly drawn)	> 96.2 µM	> 64.8 µM	> 100 µM	> 100 µM	> 100 µM	> 100 µM	> 100 µM	> 100 µM	> 100 µM	> 100 µM										
COC(=O)C1Cc2ccc(C)cc2C1=O (stereo not drawn)	> 100 µM	> 100 µM	> 100 µM	> 100 µM	> 100 µM	> 100 µM	> 100 µM	> 100 µM	> 100 µM	> 100 µM										
CC(=O)N1c2ccccc2C(C)(C)OC1C(Cl)(Cl)Cl (stereo not drawn)	> 100 µM	> 100 µM	> 100 µM	> 100 µM	> 100 µM	94.5 µM	> 100 µM	> 100 µM	> 100 µM	> 100 µM										
COC(=O)[C@@H]1C=C[C@@H](C#N)n2c(=O)n(-c3ccccc3)c(=O)n21	> 100 µM	51.3 µM	> 100 µM	> 100 µM	73.2 µM	> 100 µM	93.6 µM	> 100 µM	95 µM	> 100 µM										
Cc1cn(CC2=NCCN2)c(=O)[nH]c1=O	> 100 µM	> 100 µM	> 100 µM	> 100 µM	> 100 µM	> 100 µM	> 100 µM	> 100 µM	> 100 µM	> 100 µM										
Clc1ccccc1/C=C/c1nsc(/C=C/c2ccccc2Cl)n1	> 100 µM	> 100 µM	> 100 µM	> 100 µM	> 100 µM	> 100 µM	> 100 µM	> 100 µM	51.5 µM	> 100 µM										
CC(O)c1c2c(cc3c1CC1(C3)Cc3cc4c(c(C(C)O)c3C1)CCC4)CCC2 (stereo not drawn)	29 µM	22.1 µM	24.8 µM	41.1 µM	38.4 µM	59.5 µM	34.8 µM	45.2 µM	32 µM	3.26 µM										
Cc1c2c(c(C)n1-c1ccccc1)C(=O)N(CCSC(=N)N)C2=O	> 100 µM	> 100 µM	> 100 µM	> 100 µM	> 100 µM	> 100 µM	> 100 µM	> 100 µM	> 100 µM	> 100 µM										
Cc1nc(-c2ccccc2)c(C)n2c1nc1ccccc12	> 100 µM	> 100 µM	> 100 µM	74.5 µM	> 100 µM	86.1 µM	> 100 µM	> 100 µM	> 100 µM	79.1 µM										
COC(=O)C1Cc2c([nH]c3ccccc23)C(c2cccc(O)c2)N1 (stereo not drawn)	> 100 µM	43.2 µM	> 100 µM	> 100 µM	> 100 µM	> 100 µM	51.2 µM	> 100 µM	> 100 µM	> 100 µM										
Cc1ccc(/C=C2\CN(C)CC3C(c4ccc(C)cc4)=C(C#N)C(=O)NC23)cc1 (stereo not drawn)	> 50 µM	> 50 µM	> 50 µM	> 50 µM	> 50 µM	> 50 µM	> 50 µM	> 50 µM	> 50 µM											
CC(C)Nc1[nH]c(C(=O)c2ccccc2)c(N)c1C(=S)Nc1ccccc1	> 100 µM	> 100 µM	> 100 µM	> 100 µM	> 100 µM	> 100 µM	> 100 µM	> 100 µM	> 100 µM	> 100 µM										
O=C(c1ccc(Cl)cc1Cl)N(Cc1cccnc1)C(=S)N(Cc1cccnc1)C(=O)c1ccc(Cl)cc1Cl	24.4 µM	> 100 µM	6.19 µM	15.4 µM	18.8 µM	12.3 µM	6.53 µM	41.5 µM	18.3 µM	12.9 µM										
N#Cc1cccc(C2ON=C(c3ccc([N+](=O)[O-])cc3)N2C23CC4CC(CC(C4)C2)C3)c1 (stereo not drawn)	> 100 µM	> 100 µM	> 100 µM	> 100 µM	> 100 µM	> 100 µM	> 100 µM	> 100 µM	> 100 µM	> 100 µM										
O=S(=O)(c1cc(Cl)ccc1Cl)N1CCN(c2ccc(Cl)c(Cl)c2)CC1	56.8 µM	> 100 µM	> 100 µM	> 100 µM	> 100 µM	> 100 µM	> 100 µM	50.5 µM	> 100 µM	> 100 µM										
COC(=O)c1ccc2c(c1)CC1(C2)Cc2cc3c(c(C(=O)OC)c2C1)CCCC3 (stereo not drawn)	> 100 µM	> 100 µM	> 100 µM	> 100 µM	> 100 µM	> 100 µM	> 100 µM	> 100 µM	> 100 µM	> 100 µM										
Cc1cc(C)c(S(=O)(=O)N[C@@H](/C=C(\Br)CO)C(C)C)c(C)c1	68 µM	90.1 µM	> 100 µM	> 100 µM	> 100 µM	59.4 µM	> 100 µM	> 100 µM	32 µM	> 100 µM										
CC[C@@H]1CN2CCC1C[C@@H]2C(O)c1ccnc2ccc(OCCN3CCN(CCOc4ccc5nccc(C(O)[C@@H]6C[C@@H]7CCN6C[C@@H]7CC)c5c4)CC3)cc12 (stereo partly drawn)	37 µM	15.7 µM	28.3 µM	56.2 µM	34 µM	31.8 µM	31.3 µM	30.5 µM	28.9 µM											

— PubChem BioAssay (NCI)
